# Measured values from BindingDB's records for doi:10.1111/cbdd.12826 (Universidade De Lisboa, 2016).
# Counter-ions that a name gives are not always drawn.
# Molecular target: DNA-(apurinic or apyrimidinic site) endonuclease (Homo sapiens, UniProt P27695)
# Test: Fluorescence-Based APE1 Endonuclease Activity Assay
# Details: pH 7.5
# Description: In this assay, the complementary single-stranded oligonucleotides at […] were mixed at a 1:1 ratio and annealed in assay buffer (50 mm Tris pH 7.5, 25 mm NaCl, 2 mm MgCl2, 1 mm DTT, 0.01% Tween-20) at 95 °C for 5 min to generatethe double-stranded substrate of APE1.[A. Simeonov, A. Kulkarni, D. Dorjsuren, A. Jadhav, M. Shen, D. R. McNeill, C. P. Austin, D. M. Wilson 3rd, PLoS ONE 2009, 4, p. e5740.] After the annealing, the reaction mixture was allowed to cool to room temperature. The assay was carried out in 96-well black plates with flat bottom (Costar, Corning Inc., NY, USA) at a finalreaction volume of 100 μL. The reaction mixtures containing 2.5 U of human recombinant APE1 (6 μL) (New England Biolabs, Ipswich, MA, USA) were incubated in the assay buffer abovementioned, in the absence or presence of the putative APE1 inhibitors (5 μL), at room temperature for 15 min. The reaction was initiated by the addition of double-stranded substrate (6 μL) to obtain the final concentration of 250 nm. DMSO was maintained at a concentration of 0.5% (v/v) in all assays (negative control). Fluorescence readings were acquired at 1-min intervals over an incubation period of 30 min at 37 °C using a SpectraMax Gemini EM microplate plate reader (Molecular Devices, Berkshire, UK) in the kinetic mode at excitation wavelength 550 nm, emission wavelength 584 nm, and cutoff at 570 nm.
# Chain of DNA-(apurinic or apyrimidinic site) endonuclease (P27695 whole entry): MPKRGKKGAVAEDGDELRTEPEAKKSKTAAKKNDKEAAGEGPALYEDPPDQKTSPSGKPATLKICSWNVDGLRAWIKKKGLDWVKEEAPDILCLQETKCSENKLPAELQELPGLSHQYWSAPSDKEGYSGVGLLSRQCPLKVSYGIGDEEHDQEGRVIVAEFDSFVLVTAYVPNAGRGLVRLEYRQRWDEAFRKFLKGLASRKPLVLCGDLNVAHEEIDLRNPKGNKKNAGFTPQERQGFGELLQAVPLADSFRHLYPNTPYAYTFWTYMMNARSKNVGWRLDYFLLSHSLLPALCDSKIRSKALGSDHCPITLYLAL
row,IC50,SMILES
1,0.25 µM,CC(=O)Nc1ccc(/C=C/c2ccc(N=C=S)c(S(=O)(=O)O)c2)c(S(=O)(=O)O)c1 [(5-(acetylamino)-2-[2-(4-isothiocyanato-3-sulfophenyl)ethenyl]benzenesulfonic acid disodium salt (Compound 22)]
2,8.85 µM,Nc1ccc(/N=N/c2c(N)ccc3cc(S(=O)(=O)O)cc(O)c23)c(S(=O)(=O)O)c1 [6-amino-5-[(4-amino-2-sulfophenyl)azo]-4-hydroxy-2-naphtalenesulfonic acid disodium salt (Compound 41)]
3,7.76 µM,Nc1ccc2cc(S(=O)(=O)O)cc(O)c2c1/N=N/c1ccc([N+](=O)[O-])cc1S(=O)(=O)O [6-amino-4-hydroxy-5-[(4-nitro-2-sulfophenyl)azo]-2-naphtalenesulfonic acid disodium salt (Compound 37)]
